This is an account of results in US4544662A, “1'-Substituted-spiro[oxazolidine-5-3'-indoline]-2,2', 4-trione derivatives” (Imperial Chemical Industries, priority 1982, dated 1985).

Molecules are shown by their SMILES. pIC50: −log10 of the molar value.

This test addresses T1, aldose reductase (Bos taurus, UniProt P16116).
T1 construct: purified aldose reductase is isolated in known manner from bovine lenses; from tissue; host or cells: bovine lens
The experiment in a line: in vitro inhibition of purified aldose reductase isolated from bovine lenses (spectrophotometric). It is filed as biochemical. Conditions: purified bovine lens aldose reductase; reduction of glucose to sorbitol; read-out: IC50 (concentration necessary to produce 50% inhibition of enzymic activity). Here is the method:
Thus, purified aldose reductase is isolated in known manner from bovine lenses. The percentage inhibition of this enzyme's ability in vitro to reduce aldoses to polyhydric alcohols, and particularly to reduce glucose to sorbitol, caused by a test compound is then determined using standard spectrophotometric methods.

With `Cc1cccc2c1N(Cc1ccc(Br)cc1F)C(=O)C21OC(=O)NC1=O` (centres unmarked) [Example 6, 1'-(4-bromo-2-fluorobenzyl)-7'-methylspiro[oxazolidine-5,3'-indoline]-2,2',4-trione], the pIC50 is 7.70.

Turning to `Cc1cc(Cl)cc2c1N(Cc1ccc(Cl)c(Cl)c1)C(=O)C21OC(=O)NC1=O` (centres unmarked) [Example 7, 1'-(3,4-dichlorobenzyl)-5'-chloro-7'-methylspiro[oxazolidine-5,3'-indoline]-2,2',4-trione], the pIC50 was 7.60.
